Results published in US10174000B2, “Bicyclic-fused heteroaryl or aryl compounds as IRAK4 modulators” (PFIZER INC., priority 2015, dated 2019).
pIC50: −log10 of the molar value.

Assays:
[1] = molecular target: inactive, unphosphorylated (0-phos), human IRAK4 FL (Full Length) (Homo sapiens (Human), UniProt Q9NWZ3); assay: IRAK4 Enzymatic DELFIA Assay, Protocol B; type: biochemical; details: 600 μM ATP (KM), full-length recombinant human IRAK4
Description: IRAK4 Enzymatic DELFIA Assay, Protocol B.
The test compound is solubilized in DMSO to a stock concentration of 30 mM. The dose response plates were prepared with a 4 mM primary compound concentration, serialized in DMSO and spotted (1 μL) into 384-well polypropylene plates as before.
20 uL of 20 mM HEPES pH=7.5, 5 mM MgCl2, 0.0025% Brij-35, 600 μM ATP, and 100 nM ERM-biotinylated peptide (AGAGRDKYKTLRQIR) was added to start the reaction, which was run for 90 minutes at RT and stopped by the addition of 20 μL 0.3M EDTA.
(§1) 50 μL of the reaction mixture was transferred to a streptavidin-coated detection plate (DELFIA streptavidin coated plates, 384-well, white plates, Perkin-Elmer Life Sciences) and incubated for 30 minutes at RT. The plates were washed 4× with 75 μL per well of PBS containing 0.05% Tween-20. Plates were then incubated with 50 μL per well of antibody cocktail of Anti-pERM antibody at 0.125 μg/mL (Cell Signaling Technology), plus Anti-Rabbit IgG EuN1 at 0.25 μg/ml (Perkin-Elmer Life Sciences) in a solution of 10 mM MOPS pH=7.5, 150 mM NaCl, 0.05% Tween-20, 0.02% NaN3, 1% BSA, 0.1% Gelatin for 45 minutes. The plates were then washed as before. 50 μL per well of DELFIA Enhancement Solution (Perkin-Elmer Life Sciences) was added to the plate and incubated for 15 minutes at RT prior to being read on an Envision Model 2104 multi-label reader using a 340 nm excitation wavelength and a […] emission wavelength for detection.

[2] = molecular target: human IRAK4 FL (Full Length), phosphorylated (Homo sapiens (Human), UniProt Q9NWZ3); assay: IRAK4 Enzymatic DELFIA Assay, Protocol A; type: biochemical; details: 600 μM ATP (KM); full-length phosphorylated recombinant human IRAK4
Description: IRAK4 Enzymatic DELFIA Assay, Protocol A.
This is an in vitro assay to measure IRAK4 enzymatic activity utilizing the DELFIA (Dissociation-Enhanced Lanthanide Fluorescent Immunoassay, Perkin-Elmer) platform, with the human IRAK4 FL (Full Length) construct to characterize IRAK4 inhibitor and control compounds at 600 μM ATP (KM). The final amount of enzyme in the assay is 0.1 nM IRAK4 FL, final concentration of substrate is 50 nM, and final concentration of DMSO is 2.5%.
The test compound was solubilized in DMSO to a stock concentration of 30 mM. The dose response plates were prepared with a 4 mM primary compound concentration (40-fold multiple of the final in-assay concentration), and diluted in DMSO in a four-fold series for a total of 11 data points. 1 μL of the compound dilution plate is spotted into ultra-clear polypropylene, 384-well, U-bottom plates (Corning Life Sciences).
To begin the assay, 19 μL of reaction mixture containing 20 mM HEPES pH=7.5, 5 mM MgCl2, 0.0025% Brij-35, 600 μM ATP, 0.21 nM Full-length phosphorylated recombinant human IRAK4 (GenBank ID AF445802) are aliquoted into the polypropylene, 384-well, U-bottom plates containing 1 μL of test compound, mixed briefly and incubated for 20 minutes at room temperature (RT). Then, 20 μL of 20 mM HEPES pH=7.5, 5 mM MgCl2, 0.0025% Brij-35, 600 μM ATP, and 100 nM ERM-biotinylated peptide (AGAGRDKYKTLRQIR) is added to start the reaction. The reaction is incubated for 60 minutes at RT and stopped by the addition of 20 μL 0.3M EDTA.
as §1

Sequence of inactive, unphosphorylated (0-phos), human IRAK4 FL (Full Length) (Q9NWZ3 whole entry): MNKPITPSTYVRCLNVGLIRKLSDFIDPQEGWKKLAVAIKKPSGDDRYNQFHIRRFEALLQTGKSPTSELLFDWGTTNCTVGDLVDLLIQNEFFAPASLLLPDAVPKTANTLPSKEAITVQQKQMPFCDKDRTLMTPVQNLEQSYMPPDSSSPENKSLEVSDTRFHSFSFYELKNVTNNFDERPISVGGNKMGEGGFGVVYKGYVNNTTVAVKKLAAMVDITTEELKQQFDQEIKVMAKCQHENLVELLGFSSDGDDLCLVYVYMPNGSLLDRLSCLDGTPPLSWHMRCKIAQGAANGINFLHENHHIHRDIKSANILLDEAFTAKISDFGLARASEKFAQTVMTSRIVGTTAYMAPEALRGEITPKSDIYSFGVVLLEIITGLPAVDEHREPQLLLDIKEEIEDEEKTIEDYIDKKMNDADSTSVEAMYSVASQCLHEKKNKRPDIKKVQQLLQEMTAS
Sequence of human IRAK4 FL (Full Length), phosphorylated (Q9NWZ3 whole entry): as above

Row | pIC50 [1] | pIC50 [2] | SMILES
1 | 5.77 | 4.59 | COc1cc2c(OC[C@@H]3NC(=O)[C@@H](F)C34CC4)nccc2cc1C(N)=O [Example 22, 1-(((4R,7S)-7-fluoro-6-oxo-5-azaspiro[2.4]heptan-4-yl)methoxy)-7-methoxyisoquinoline-6-carboxamide]
2 | 6.96 | 5.84 | COc1cc2c(OC[C@@H]3NC(=O)[C@H](F)C34CC4)nccc2cc1C(N)=O [Example 23, 1-(((4R,7R)-7-fluoro-6-oxo-5-azaspiro[2.4]heptan-4-yl)methoxy)-7-methoxyisoquinoline-6-carboxamide]
3 | 9.10 | 8.28 | COc1cc2c(OC[C@H]3NC(=O)[C@@H](F)C34CC4)nccc2cc1C(N)=O [Example 24, 1-(((4S,7S)-7-fluoro-6-oxo-5-azaspiro[2.4]heptan-4-yl)methoxy)-7-methoxyisoquinoline-6-carboxamide]
4 | 8.57 | 7.33 | CC[C@@H]1CC(=O)N[C@@H]1COc1cncc2cc(C(N)=O)c(OC)cc12 [Example 25, 4-(((2S,3R)-3-ethyl-5-oxopyrrolidin-2-yl)methoxy)-6-methoxyisoquinoline-7-carboxamide]
5 | 9.52 | 8.11 | CC[C@@H]1[C@H](F)C(=O)N[C@@H]1COc1cncc2cc(C(N)=O)c(OC)cc12 [Example 26, 4-(((2S,3S,4S)-3-ethyl-4-fluoro-5-oxopyrrolidin-2-yl)methoxy)-6-methoxyisoquinoline-7-carboxamide]
6 | 10.00 | 9.10 | CC[C@@H]1[C@H](F)C(=O)N[C@@H]1COc1cccc2cc(C(N)=O)c(OC)cc12 [Example 27, 5-(((2S,3S,4S)-3-ethyl-4-fluoro-5-oxopyrrolidin-2-yl)methoxy)-3-methoxy-2-naphthamide]
7 | 6.82 | 5.37 | COc1cc2c(OC[C@]34C[C@H]3CC(=O)N4)nccc2cc1C(N)=O [Example 30, 7-methoxy-1-{[(1S,5S)-3-oxo-2-azabicyclo[3.1.0]hex-1-yl]methoxy}isoquinoline-6-carboxamide]
8 | 5.92 | < 4.00 | COc1cc2c(OC[C@@]34C[C@@H]3CC(=O)N4)nccc2cc1C(N)=O [Example 31, 7-methoxy-1-{[(1R,5R)-3-oxo-2-azabicyclo[3.1.0]hex-1-yl]methoxy}isoquinoline-6-carboxamide]
9 | 8.35 | 7.57 | CC[C@@H]1[C@H](F)C(=O)N[C@@H]1COc1nccc2nc(C(N)=O)c(OC)cc12 [Example 32, 5-{[(2S,3S,4S)-3-ethyl-4-fluoro-5-oxopyrrolidin-2-yl]methoxy}-3-methoxy-1,6-naphthyridine-2-carboxamide]
